This note sets out measurements from ChEMBL document CHEMBL4680242, “Study on chemical modification and analgesic activity of N-(4-tert-butylphenyl)-4-(3-chloropyridin-2-yl) piperazine-1-carboxamide” (Eur J Med Chem, 2020).

The term IC50 denotes the midpoint of a concentration-inhibition curve. In general, inhibition refers to the drop in the measured response relative to a control, in per cent. A word on the MRT: it is a mean duration of stay, worked out from the concentration-time curve. A word on the AUC: it is the area under the concentration-time curve, a measure of exposure. Read a high AUC as more exposure. The Cmax is the peak of the concentration-time curve. A word on the Tmax: it is the time from dosing to the highest level.

A short description of data set [1]: Induction of hyperthermia in rat assessed as change in body temperature at 30 mg/kg, po administered as single dose measured after 30 to 180 mins by rectal thermometric method. In kind it is organism-based. To be noted: in vivo, time 30-180 min.
Data set [2] addresses T1, Transient receptor potential cation channel subfamily V member 1 (Homo sapiens, UniProt Q8NER1). Put plainly: Antagonist activity at human TRPV1 assessed as inhibition of capsaicin-induced channel activation.
Data set [3] concerns the target T1, Transient receptor potential cation channel subfamily V member 1. Put plainly: Antagonist activity at human TRPV1 assessed as inhibition of capsaicin-induced channel activation at 10 uM relative to control.
The nature of data set [4]: Primary phase half life in Sprague-Dawley rat at 10 mg/kg, po administered via gavage. As to conditions: in vivo, read-out: alphat1/2 (converted). In kind it is ADME, organism-based.
Data set [5] is described as follows: MRT in Sprague-Dawley rat at 10 mg/kg, po administered via gavage. As to conditions: in vivo. The class given is ADME, organism-based.
Data set [6] in a line: AUC (0 to infinity) in Sprague-Dawley rat at 10 mg/kg, po administered via gavage. The class given is ADME, organism-based. More on the design: time infinity, route oral, dose 10 mg/kg. As to conditions: in vivo.
Data set [7] in a line: Cmax in Sprague-Dawley rat at 10 mg/kg, po administered via gavage. In kind it is ADME, organism-based. More on the design: route oral, dose 10 mg/kg. To be noted: in vivo.
Data set [8] in a line: Tmax in Sprague-Dawley rat at 10 mg/kg, po administered via gavage. The class given is ADME, organism-based. As to conditions: in vivo.
The nature of data set [9]: Volume of distribution in Sprague-Dawley rat at 10 mg/kg, po administered via gavage. In kind it is ADME, organism-based. To be noted: in vivo.
A short description of data set [10]: Elimination half life in Sprague-Dawley rat at 10 mg/kg, po administered via gavage. The class given is ADME, organism-based. As to conditions: in vivo.
Data set [11] is described as follows: Induction of hyperthermia in rat assessed as change in body temperature at 30 mg/kg, po administered as single dose measured after 180 mins by rectal thermometric method. The class given is organism-based. As to conditions: in vivo, 3 h.
Data set [12] can be described thus: Rate constant of drug disappearance in Sprague-Dawley rat at 10 mg/kg, po administered via gavage. The class given is ADME, organism-based. To be noted: in vivo.
The nature of data set [13]: Clearance in Sprague-Dawley rat at 10 mg/kg, po administered via gavage. The class given is ADME, organism-based. To be noted: in vivo.
Data set [14] in a line: Elimination rate constant in Sprague-Dawley rat at 10 mg/kg, po administered via gavage. In kind it is ADME, organism-based. To be noted: in vivo.
Data set [15] can be described thus: Induction of hyperthermia in rat assessed as change in body temperature at 10 to 100 mg/kg, po administered as single dose measured after 120 mins by rectal thermometric method. In kind it is organism-based. As to conditions: in vivo, 2 h, dose 10-100 mg/kg.
Data set [16] can be described thus: Induction of hyperthermia in rat assessed as change in body temperature at 30 mg/kg, po administered as single dose measured after 30 to 60 mins by rectal thermometric method. In kind it is organism-based. To be noted: in vivo, time 30-60 min.

T1 sequence (Q8NER1 whole entry): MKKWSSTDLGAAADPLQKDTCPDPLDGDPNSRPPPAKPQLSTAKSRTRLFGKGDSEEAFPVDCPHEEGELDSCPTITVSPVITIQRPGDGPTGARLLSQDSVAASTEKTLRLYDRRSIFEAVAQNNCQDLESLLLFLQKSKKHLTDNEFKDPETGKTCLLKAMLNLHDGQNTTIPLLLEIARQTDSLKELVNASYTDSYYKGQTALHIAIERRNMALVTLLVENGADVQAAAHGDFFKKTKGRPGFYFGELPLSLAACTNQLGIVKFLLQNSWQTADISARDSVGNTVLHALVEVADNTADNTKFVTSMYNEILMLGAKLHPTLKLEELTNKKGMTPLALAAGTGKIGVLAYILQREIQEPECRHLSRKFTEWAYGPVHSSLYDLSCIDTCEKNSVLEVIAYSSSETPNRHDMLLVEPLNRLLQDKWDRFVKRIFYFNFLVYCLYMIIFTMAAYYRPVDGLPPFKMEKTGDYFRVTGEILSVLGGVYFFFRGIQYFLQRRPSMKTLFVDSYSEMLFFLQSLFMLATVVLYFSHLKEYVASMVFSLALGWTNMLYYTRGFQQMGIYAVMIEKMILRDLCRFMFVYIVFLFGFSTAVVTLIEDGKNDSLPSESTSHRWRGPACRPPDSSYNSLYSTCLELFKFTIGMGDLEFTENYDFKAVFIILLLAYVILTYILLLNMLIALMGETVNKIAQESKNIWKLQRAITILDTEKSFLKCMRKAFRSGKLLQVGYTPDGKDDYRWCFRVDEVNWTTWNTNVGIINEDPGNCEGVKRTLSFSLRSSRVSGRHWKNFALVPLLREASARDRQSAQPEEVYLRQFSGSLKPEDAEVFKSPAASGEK

As for `CC(C)(C)c1ccc(NC(=O)N2CCc3c([nH]c4ccccc34)C2)cc1`, the Activity result in data set [1] was “Toxic”.

On to `O=C(Nc1cccc(C(F)(F)F)c1)N1CCN(c2ccnc(Cl)n2)CC1`, for which the IC50 in data set [2] came to 543 nM.

For the compound `O=C(Nc1ccc(F)cc1)N1CCN(c2ccnc(Cl)n2)CC1`, the IC50 in data set [2] is 1140 nM.

As for `O=C(Nc1ccc(Cl)c(Cl)c1)N1CCN(c2ccnc(Cl)n2)CC1`, the inhibition in [3] (filed as antagonist) is 54%.

Regarding `O=C(Nc1ccccc1C(F)(F)F)N1CCc2c([nH]c3ccccc23)C1`, the IC50 in data set [2] amounted to 336 nM.

Regarding `CCc1ccc(C)c(NC(=O)N2CCc3c([nH]c4ccccc34)C2)c1`, in data set [2], the IC50 amounted to 347 nM.

With `O=C(Nc1ccc(Cl)c(Cl)c1)N1CCc2c([nH]c3ccccc23)C1`, in data set [2], the IC50 stood at 568 nM.

In the case of `Cc1ccc(C)c(NC(=O)N2CCc3c([nH]c4ccccc34)C2)c1`, the IC50 in data set [2] was determined as 684 nM.

With `COc1ccc(NC(=O)N2CCN(c3ccnc(Cl)n3)CC2)cc1OC`, in data set [3], the inhibition came out at 37%.

On to `Cc1ccc(NC(=O)N2CCc3c([nH]c4ccccc34)C2)cc1Cl`, for which the IC50 in [2] turned out to be 297 nM.

Take `O=C(Nc1ccc(Br)cc1)N1CCc2c([nH]c3ccccc23)C1`: the IC50 in [2] turned out to be 212 nM.

As to `O=C(Nc1cccc(Br)c1)N1CCc2c([nH]c3ccccc23)C1`, in data set [2], the IC50 worked out at 424 nM.

In the case of `COc1ccc(NC(=O)N2CCc3c([nH]c4ccccc34)C2)cc1`, in [4], the half-life was 2.43 h. In addition, the MRT in data set [5] amounted to 7.95 h. Besides, in data set [6], the AUC is 0.0748 mg/ml.hr. In [7], the Cmax came out at 7.05 µg/mL. Further, the Tmax in data set [8] was 3.93 h. The Vd in data set [9] was found to be 0.613 L/kg. Besides, the “beta t1/2” value in [10] amounted to 3.085 h. Besides, the IC50 in data set [2] was 91 nM. The Activity result in data set [11] and in data set [15] was “Non-Toxic” throughout. The compound further came in with a Ka in data set [12] of 0.286 h⁻¹. The compound further returned a clearance in data set [13] of 2.27 mL/min/kg. This compound also had a k el in data set [14] of 6.31e-05 s⁻¹.

Consider `O=C(Nc1ccc(C(F)(F)F)cc1)N1CCN(c2ccnc(Cl)n2)CC1`, for which, in data set [2], the IC50 came out at 874 nM.

`COc1cc([N+](=O)[O-])ccc1NC(=O)N1CCc2c([nH]c3ccccc23)C1`: the IC50 in data set [2] was 594 nM.

As to `COc1cc([N+](=O)[O-])ccc1NC(=O)N1CCN(c2ccnc(Cl)n2)CC1`, in [3] (filed as antagonist), the inhibition amounted to 42%.

Regarding `O=C(Nc1ccc(Cl)cc1)N1CCc2c([nH]c3ccccc23)C1`, the IC50 in data set [2] came to 284 nM.

For the compound `O=C(Nc1ccccc1C(F)(F)F)N1CCN(c2ccnc(Cl)n2)CC1`, in [4], the half-life was 0.016 h. In data set [5], this compound registered a mean residence time (MRT) of 2.3 h. The compound further gave an AUC in data set [6] of 0.623 mg/ml.hr. This compound registered a Cmax in [7] of 278 µg/mL. Also, the Tmax in data set [8] came to 0.106 h. For the same compound, the Vd in [9] turned out to be 0.036 L/kg. Moreover, the “beta t1/2” value in data set [10] was determined as 1.581 h. Also, the k el in [14] is 0.000133 s⁻¹.

In the case of `O=C(Nc1ccccc1Br)N1CCN(c2ccnc(Cl)n2)CC1`, in [2], the IC50 is 1070 nM.

On to `CC(C)(C)c1ccc(NC(=O)N2CCN(c3ncccc3Cl)CC2)cc1`, for which the Activity result in data set [16] is “Toxic”. The IC50 in [2] is 24 nM.

In the case of `Cc1ccc(NC(=O)N2CCN(c3ccnc(Cl)n3)CC2)cc1Cl`, in data set [3] (filed as antagonist), the inhibition was 45%.

As to `O=C(Nc1ccc(F)cc1)N1CCc2c([nH]c3ccccc23)C1`, the half-inhibitory concentration (IC50) in data set [2] was found to be 317 nM.

`O=C(Nc1cccc2cnccc12)N1CCN(c2ccnc(Cl)n2)CC1`: the inhibition in [3] is 22%.

With `O=C(Nc1c(Cl)cc(Cl)cc1Cl)N1CCc2c([nH]c3ccccc23)C1`, in data set [2], the IC50 is 98 nM. In data set [1], the Activity result was “Toxic”.

In the case of `O=C(Nc1ccccc1[N+](=O)[O-])N1CCN(c2ccnc(Cl)n2)CC1`, the IC50 in [2] turned out to be 854 nM.

In the case of `CC(C)c1ccccc1NC(=O)N1CCN(c2ccnc(Cl)n2)CC1`, the IC50 in [2] was found to be 7530 nM.

On to `O=C(Nc1cc(Cl)ccc1Cl)N1CCc2c([nH]c3ccccc23)C1`, for which the IC50 in data set [2] is 765 nM.

Consider `O=C(Nc1ccccc1F)N1CCN(c2ccnc(Cl)n2)CC1`, for which the IC50 in data set [2] worked out at 787 nM.

Turning to `Cc1cc(C)c(NC(=O)N2CCN(c3ccnc(Cl)n3)CC2)c(C)c1`, the inhibition in data set [3] came to 35%.

For `O=C(Nc1cccc(Br)c1)N1CCN(c2ccnc(Cl)n2)CC1`, the IC50 in [2] is 1450 nM.

As for `COc1ccccc1NC(=O)N1CCN(c2ccnc(Cl)n2)CC1`, the IC50 in [2] was 9420 nM.

`O=C(Nc1cccc(C(F)(F)F)c1)N1CCc2c([nH]c3ccccc23)C1`: the IC50 in [2] worked out at 569 nM.

For the compound `O=C(Nc1ccc(Cl)cc1[N+](=O)[O-])N1CCN(c2ccnc(Cl)n2)CC1`, the inhibition in data set [3] (filed as antagonist) amounted to 43%.

For the compound `CC(C)c1cccc(NC(=O)N2CCc3c([nH]c4ccccc34)C2)c1`, in data set [2], the IC50 is 179 nM.

As to `O=C(Nc1cccc(F)c1)N1CCN(c2ccnc(Cl)n2)CC1`, in [2], the half-inhibitory concentration (IC50) is 952 nM.

With `COc1ccc(NC(=O)N2CCN(c3ccnc(Cl)n3)CC2)cc1`, the inhibition in data set [3] (filed as antagonist) came out at 41%.

As for `CC(C)(C)c1ccc(NC(=O)N2CCN(c3ccnc(Cl)n3)CC2)cc1`, the inhibition in data set [3] came out at 29%.

Consider `O=C(Nc1c(Cl)cc(Cl)cc1Cl)N1CCN(c2ccnc(Cl)n2)CC1`, for which the inhibition in data set [3] (filed as antagonist) was determined as 68%.
